# Assay results taken from US9469650B2, “Melampomagnolide B derivatives” (BOARD OF TRUSTEES OF THE UNIVERSITY OF ARKANSAS, priority 2013, dated 2016).
# How the values were obtained:
# CCRF-CEM = experiment: panel of 60 human tumor cell lines, growth inhibition (Leukemia)
# K-562 = experiment: as above; details: K-562
# SR = experiment: as above
# MDA-MB-435 = experiment: panel of 60 human tumor cell lines, growth inhibition (Melanoma); details: MDA-MB-435
# UACC-257 = experiment: as above; details: UACC-257
# UACC-62 = experiment: as above; details: UACC-62
# SF-268 = experiment: panel of 60 human tumor cell lines, growth inhibition (CNS Cancer); details: SF-268
# SF-539 = experiment: as above; details: SF-539
# COLO 205 = experiment: panel of 60 human tumor cell lines, growth inhibition (Colon Cancer); details: COLO 205
# HCT-15 = experiment: as above; details: HCT-15
# KM12 = experiment: as above; details: KM12
# A498 = experiment: panel of 60 human tumor cell lines, growth inhibition (Renal Cancer); details: A498
# RXF 393 = experiment: as above; details: RXF 393
# MDA-MB-468 = experiment: panel of 60 human tumor cell lines, growth inhibition (Breast Cancer); details: MDA-MB-468
# OVCAR-5 = experiment: panel of 60 human tumor cell lines, growth inhibition (Ovarian Cancer); details: OVCAR-5
# OVCAR-8 = experiment: as above; details: OVCAR-8
# HOP-92 = experiment: panel of 60 human tumor cell lines, growth inhibition (Non-Small Cell Lung Cancer); details: HOP-92
# NCI-H322M = experiment: as above
structure (smiles),measurement,setting,value
C=C1C(=O)O[C@H]2[C@H]1CC/C(COC(=O)CCC(=O)N1CCC(C)CC1)=C\CC[C@@]1(C)O[C@@H]21 [JVM 2-70],Percent Growth,CCRF-CEM; Log10 Concentration −4.0,−56%
same,Percent Growth,CCRF-CEM; Log10 Concentration −5.0,−32%
same,Percent Growth,CCRF-CEM; Log10 Concentration −6.0,64%
same,Percent Growth,CCRF-CEM; Log10 Concentration −7.0,92%
same,Percent Growth,CCRF-CEM; Log10 Concentration −8.0,98%
same,GI50,CCRF-CEM; NCI five dose,1.4 µM
same,TGI,CCRF-CEM; NCI five dose,4.68E−6
same,Percent Growth,K-562; Log10 Concentration −4.0,−38%
same,Percent Growth,K-562; Log10 Concentration −5.0,7%
same,Percent Growth,K-562; Log10 Concentration −6.0,90%
same,Percent Growth,K-562; Log10 Concentration −7.0,109%
same,Percent Growth,K-562; Log10 Concentration −8.0,109%
same,GI50,K-562; NCI five dose,3.06 µM
same,TGI,K-562; NCI five dose,1.45E−5
same,Percent Growth,SR; Log10 Concentration −4.0,−38%
same,Percent Growth,SR; Log10 Concentration −5.0,6%
same,Percent Growth,SR; Log10 Concentration −6.0,84%
same,Percent Growth,SR; Log10 Concentration −7.0,102%
same,Percent Growth,SR; Log10 Concentration −8.0,101%
same,GI50,SR; NCI five dose,2.72 µM
same,TGI,SR; NCI five dose,1.39E−5
same,Percent Growth,MDA-MB-435; Log10 Concentration −4.0,−72%
same,Percent Growth,MDA-MB-435; Log10 Concentration −5.0,32%
same,Percent Growth,MDA-MB-435; Log10 Concentration −6.0,90%
same,Percent Growth,MDA-MB-435; Log10 Concentration −7.0,95%
same,Percent Growth,MDA-MB-435; Log10 Concentration −8.0,89%
same,GI50,MDA-MB-435; NCI five dose,4.84 µM
same,TGI,MDA-MB-435; NCI five dose,2.03E−5
same,Percent Growth,UACC-257; Log10 Concentration −4.0,−86%
same,Percent Growth,UACC-257; Log10 Concentration −5.0,23%
same,Percent Growth,UACC-257; Log10 Concentration −6.0,83%
same,Percent Growth,UACC-257; Log10 Concentration −7.0,92%
same,Percent Growth,UACC-257; Log10 Concentration −8.0,91%
same,GI50,UACC-257; NCI five dose,3.57 µM
same,TGI,UACC-257; NCI five dose,1.64E−5
same,Percent Growth,UACC-62; Log10 Concentration −4.0,−87%
same,Percent Growth,UACC-62; Log10 Concentration −5.0,33%
same,Percent Growth,UACC-62; Log10 Concentration −6.0,92%
same,Percent Growth,UACC-62; Log10 Concentration −7.0,94%
same,Percent Growth,UACC-62; Log10 Concentration −8.0,97%
same,GI50,UACC-62; NCI five dose,5.15 µM
same,TGI,UACC-62; NCI five dose,1.89E−5
same,Percent Growth,SF-268; Log10 Concentration −4.0,−72%
same,Percent Growth,SF-268; Log10 Concentration −5.0,67%
same,Percent Growth,SF-268; Log10 Concentration −6.0,93%
same,Percent Growth,SF-268; Log10 Concentration −7.0,101%
same,Percent Growth,SF-268; Log10 Concentration −8.0,100%
same,GI50,SF-268; NCI five dose,13.2 µM
same,TGI,SF-268; NCI five dose,3.02E−5
same,Percent Growth,SF-539; Log10 Concentration −4.0,−90%
same,Percent Growth,SF-539; Log10 Concentration −5.0,−20%
same,Percent Growth,SF-539; Log10 Concentration −6.0,92%
same,Percent Growth,SF-539; Log10 Concentration −7.0,97%
same,Percent Growth,SF-539; Log10 Concentration −8.0,93%
same,GI50,SF-539; NCI five dose,2.35 µM
same,TGI,SF-539; NCI five dose,6.58E−6
same,CC50,"SF-539; read-out: LC50, NCI five dose",26.5 µM
same,Percent Growth,COLO 205; Log10 Concentration −4.0,−88%
same,Percent Growth,COLO 205; Log10 Concentration −5.0,−11%
same,Percent Growth,COLO 205; Log10 Concentration −6.0,104%
same,Percent Growth,COLO 205; Log10 Concentration −7.0,107%
same,Percent Growth,COLO 205; Log10 Concentration −8.0,94%
same,GI50,COLO 205; NCI five dose,2.94 µM
same,TGI,COLO 205; NCI five dose,8.03E−6
same,Percent Growth,HCT-15; Log10 Concentration −4.0,−70%
same,Percent Growth,HCT-15; Log10 Concentration −5.0,−29%
same,Percent Growth,HCT-15; Log10 Concentration −6.0,74%
same,Percent Growth,HCT-15; Log10 Concentration −7.0,91%
same,Percent Growth,HCT-15; Log10 Concentration −8.0,90%
same,GI50,HCT-15; NCI five dose,1.7 µM
same,TGI,HCT-15; NCI five dose,5.22E−6
same,Percent Growth,KM12; Log10 Concentration −4.0,−87%
same,Percent Growth,KM12; Log10 Concentration −5.0,62%
same,Percent Growth,KM12; Log10 Concentration −6.0,98%
same,Percent Growth,KM12; Log10 Concentration −7.0,102%
same,Percent Growth,KM12; Log10 Concentration −8.0,102%
same,GI50,KM12; NCI five dose,12.1 µM
same,TGI,KM12; NCI five dose,2.61E−5
same,Percent Growth,A498; Log10 Concentration −4.0,−92%
same,Percent Growth,A498; Log10 Concentration −5.0,29%
same,Percent Growth,A498; Log10 Concentration −6.0,67%
same,Percent Growth,A498; Log10 Concentration −7.0,54%
same,Percent Growth,A498; Log10 Concentration −8.0,58%
same,GI50,A498; NCI five dose,2.77 µM
same,TGI,A498; NCI five dose,1.73E−5
same,Percent Growth,RXF 393; Log10 Concentration −4.0,−88%
same,Percent Growth,RXF 393; Log10 Concentration −5.0,−54%
same,Percent Growth,RXF 393; Log10 Concentration −6.0,91%
same,Percent Growth,RXF 393; Log10 Concentration −7.0,101%
same,Percent Growth,RXF 393; Log10 Concentration −8.0,105%
same,GI50,RXF 393; NCI five dose,1.91 µM
same,TGI,RXF 393; NCI five dose,4.24E−6
same,Percent Growth,MDA-MB-468; Log10 Concentration −4.0,−69%
same,Percent Growth,MDA-MB-468; Log10 Concentration −5.0,−33%
same,Percent Growth,MDA-MB-468; Log10 Concentration −6.0,52%
same,Percent Growth,MDA-MB-468; Log10 Concentration −7.0,92%
same,Percent Growth,MDA-MB-468; Log10 Concentration −8.0,88%
same,GI50,MDA-MB-468; NCI five dose,1.06 µM
same,TGI,MDA-MB-468; NCI five dose,4.06E−6
same,CC50,"MDA-MB-468; read-out: LC50, NCI five dose",29.8 µM
same,Percent Growth,OVCAR-5; Log10 Concentration −4.0,−89%
same,Percent Growth,OVCAR-5; Log10 Concentration −5.0,41%
same,Percent Growth,OVCAR-5; Log10 Concentration −6.0,87%
same,Percent Growth,OVCAR-5; Log10 Concentration −7.0,87%
same,Percent Growth,OVCAR-5; Log10 Concentration −8.0,86%
same,GI50,OVCAR-5; NCI five dose,6.36 µM
same,TGI,OVCAR-5; NCI five dose,2.06E−5
same,Percent Growth,OVCAR-8; Log10 Concentration −4.0,−88%
same,Percent Growth,OVCAR-8; Log10 Concentration −5.0,15%
same,Percent Growth,OVCAR-8; Log10 Concentration −6.0,89%
same,Percent Growth,OVCAR-8; Log10 Concentration −7.0,95%
same,Percent Growth,OVCAR-8; Log10 Concentration −8.0,94%
same,GI50,OVCAR-8; NCI five dose,3.37 µM
same,TGI,OVCAR-8; NCI five dose,1.39E−5
same,Percent Growth,HOP-92; Log10 Concentration −4.0,−91%
same,Percent Growth,HOP-92; Log10 Concentration −5.0,3%
same,Percent Growth,HOP-92; Log10 Concentration −6.0,71%
same,Percent Growth,HOP-92; Log10 Concentration −7.0,83%
same,Percent Growth,HOP-92; Log10 Concentration −8.0,87%
same,GI50,HOP-92; NCI five dose,2.05 µM
same,TGI,HOP-92; NCI five dose,1.07E−5
same,Percent Growth,NCI-H322M; Log10 Concentration −4.0,−83%
same,Percent Growth,NCI-H322M; Log10 Concentration −5.0,93%
same,Percent Growth,NCI-H322M; Log10 Concentration −6.0,102%
same,Percent Growth,NCI-H322M; Log10 Concentration −7.0,108%
same,Percent Growth,NCI-H322M; Log10 Concentration −8.0,102%
same,GI50,NCI-H322M; NCI five dose,17.6 µM
same,TGI,NCI-H322M; NCI five dose,3.39E−5
